Assay results taken from the supplement of paper PMC10307832.

Experiments:
Experiment in all cases: relative viability (nuclei count vs DMSO), 5 days (fraction); higher = more cells survive
Palbociclib + Luminespib = compound: CC(=O)c1c(C)c2cnc(Nc3ccc(N4CCNCC4)cn3)nc2n(C2CCCC2)c1=O [Palbociclib] + CCNC(=O)c1noc(-c2cc(C(C)C)c(O)cc2O)c1-c1ccc(CN2CCOCC2)cc1 [Luminespib] (partner 0.01 µM)
Summary of the method: (§1)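 A single step with final 0.05% Triton X-100, 1% formaldehyde and 1 ug/ml Hoechst fixed the cells and stained nuclei 5 days after treatment. Lung cancer cell lines in 1536-well plates had been treated by pin tool the day after seeding with one drug alone or a fixed anchor-drug dose plus five library-drug doses (not always all listed) in √10 steps, and nuclei were counted on 4× images. Relative viability is the ratio of nuclei in treated wells to nuclei in vehicle wells, taken as the median of duplicate plates.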

Palbociclib + OSI-027 = compound: CC(=O)c1c(C)c2cnc(Nc3ccc(N4CCNCC4)cn3)nc2n(C2CCCC2)c1=O [Palbociclib] + COc1cccc2cc(-c3nc([C@H]4CC[C@H](C(=O)O)CC4)n4ncnc(N)c34)[nH]c12 [OSI-027] (partner 0.5 µM)
Summary of the method: as §1

Palbociclib + Lapatinib = compound: CC(=O)c1c(C)c2cnc(Nc3ccc(N4CCNCC4)cn3)nc2n(C2CCCC2)c1=O [Palbociclib] + CS(=O)(=O)CCNCc1ccc(-c2ccc3ncnc(Nc4ccc(OCc5cccc(F)c5)c(Cl)c4)c3c2)o1 [Lapatinib] (partner 2 µM)
Summary of the method: as §1

Palbociclib + Decitabine = compound: CC(=O)c1c(C)c2cnc(Nc3ccc(N4CCNCC4)cn3)nc2n(C2CCCC2)c1=O [Palbociclib] + Nc1ncn([C@H]2C[C@H](O)[C@@H](CO)O2)c(=O)n1 [Decitabine] (partner 2 µM)
Summary of the method: as §1

Cell Line	relative viability (Palbociclib + Luminespib; first compound 0.01 µM)	relative viability (Palbociclib + Luminespib; first compound 0.03162 µM)	relative viability (Palbociclib + Luminespib; first compound 0.1 µM)	relative viability (Palbociclib + Luminespib; first compound 0.3162 µM)	relative viability (Palbociclib + Luminespib; first compound 1 µM)	relative viability (Palbociclib + OSI-027; first compound 0.01 µM)	relative viability (Palbociclib + OSI-027; first compound 0.03162 µM)	relative viability (Palbociclib + OSI-027; first compound 0.1 µM)	relative viability (Palbociclib + OSI-027; first compound 0.3162 µM)	relative viability (Palbociclib + OSI-027; first compound 1 µM)	relative viability (Palbociclib + Lapatinib; first compound 0.01 µM)	relative viability (Palbociclib + Lapatinib; first compound 0.03162 µM)	relative viability (Palbociclib + Lapatinib; first compound 0.1 µM)	relative viability (Palbociclib + Lapatinib; first compound 0.3162 µM)	relative viability (Palbociclib + Lapatinib; first compound 1 µM)	relative viability (Palbociclib + Decitabine; first compound 0.01 µM)	relative viability (Palbociclib + Decitabine; first compound 0.03162 µM)	relative viability (Palbociclib + Decitabine; first compound 0.1 µM)	relative viability (Palbociclib + Decitabine; first compound 0.3162 µM)	relative viability (Palbociclib + Decitabine; first compound 1 µM)
EMC-BAC-2	1.19	1.15	0.952	0.979	0.848	0.368	0.346	0.29	0.318	0.29	0.908	0.515	0.793	0.689	0.597	1.02	0.818	0.869	0.783	0.604
NCI-H3122	0.081	0.0895	0.0794	0.0926	0.0834	0.82	0.602	0.346	0.172	0.169	0.994	0.998	0.911	0.819	0.579	0.394	0.423	0.347	0.33	0.277
ABC-1	0.625	0.521	0.423	0.459	0.949	0.483	0.443	0.436	0.351	0.301	1.01	1.3	1.26	1.07	1.25	0.948	1.03	1.23	0.978	0.873
201T	1.02	1.01	0.909	0.878	0.749	0.763	0.676	0.661	0.613	0.338	1.06	0.844	0.928	0.94	0.692	0.827	0.836	0.836	0.834	0.665
NCI-H1734	0.251	0.182	0.193	0.197	0.17	0.684	0.42	0.466	0.413	0.329	1.01	0.575	0.867	0.789	0.531	0.46	0.524	0.539	0.461	0.43
EKVX	0.856	0.745	0.919	0.841	0.605	0.713	0.664	0.6	0.575	0.366	0.184	0.193	0.193	0.178	0.12	0.383		0.281	0.307	0.293
BEN	0.619	0.225	0.269	0.205	0.194	0.298	0.274	0.255	0.252	0.286	0.754	0.582	0.518	0.558	0.342	0.692	0.521	0.596	0.68	0.422
HARA	0.65		0.447	0.514	0.28	0.509		0.272	0.303	0.122	0.715	0.473	0.397	0.363	0.225	0.699	0.474	0.418	0.319	0.449
HCC-15	0.267		0.378	0.502	0.418	0.677		0.549	0.54	0.426	0.934		0.75	0.796	0.642	0.662		0.535	0.523	0.498
NCI-H1975	0.161	0.189	0.102	0.198	0.193	0.809	0.673	0.665	0.685	0.518	0.959	0.831	0.833	0.922	0.711	0.413	0.429	0.412	0.399	0.365
NCI-H2126	0.869	0.79	0.564	0.535	0.369	0.694	0.53	0.443	0.441	0.378	0.819	0.581	0.728	0.618	0.452	0.637	0.568	0.492	0.539	0.463
NCI-H661	0.868	0.789	0.597	0.523	0.416	0.77	0.552	0.464	0.354	0.313	0.491	0.437	0.477	0.345	0.333	0.547	0.484	0.476	0.461	0.39
LXF-289	0.627	0.71	0.604	0.709	0.554	0.815	0.411	0.697	0.734	0.561	0.852	0.888	0.838	0.747	0.7	0.367	0.405	0.411	0.363	0.422
NCI-H1395	0.661	0.561	0.631	0.668	0.587	0.64	0.55	0.536	0.54	0.415	0.867	0.987	0.943	0.928	0.688	0.741	0.704	0.656	0.702	0.641
NCI-H358	0.325		0.176	0.308	0.134	0.807	0.62	0.501	0.455	0.138	0.341	0.337	0.214	0.244	0.217	0.209	0.203	0.206	0.186	0.143
NCI-H1651	0.872	0.814	0.774	0.791	0.677	0.663	0.639	0.706	0.663	0.334	0.613	0.739	0.735	0.699	0.468	0.636	0.535	0.636	0.555	0.451
NCI-H1993	0.8	0.781	0.762	0.671	0.888	0.533	0.505	0.513	0.524	0.509	0.841	0.715	0.661	0.624	0.658	0.61	0.588	0.606	0.507	0.555

Cell Line	relative viability (Palbociclib + Luminespib; first compound 0.01 µM)	relative viability (Palbociclib + Luminespib; first compound 0.03162 µM)	relative viability (Palbociclib + Luminespib; first compound 0.1 µM)	relative viability (Palbociclib + Luminespib; first compound 0.3162 µM)	relative viability (Palbociclib + Luminespib; first compound 1 µM)	relative viability (Palbociclib + OSI-027; first compound 0.01 µM)	relative viability (Palbociclib + OSI-027; first compound 0.03162 µM)	relative viability (Palbociclib + OSI-027; first compound 0.1 µM)	relative viability (Palbociclib + OSI-027; first compound 0.3162 µM)	relative viability (Palbociclib + OSI-027; first compound 1 µM)	relative viability (Palbociclib + Lapatinib; first compound 0.01 µM)	relative viability (Palbociclib + Lapatinib; first compound 0.03162 µM)	relative viability (Palbociclib + Lapatinib; first compound 0.1 µM)	relative viability (Palbociclib + Lapatinib; first compound 0.3162 µM)	relative viability (Palbociclib + Lapatinib; first compound 1 µM)	relative viability (Palbociclib + Decitabine; first compound 0.01 µM)	relative viability (Palbociclib + Decitabine; first compound 0.03162 µM)	relative viability (Palbociclib + Decitabine; first compound 0.1 µM)	relative viability (Palbociclib + Decitabine; first compound 0.3162 µM)	relative viability (Palbociclib + Decitabine; first compound 1 µM)
NCI-H1437	1.16	1.07	0.961	0.89	0.666	0.747	0.734	0.711	0.65	0.291	0.819	0.755	0.693	0.67	0.36	0.582	0.551	0.569	0.494	0.408
NCI-H2023	0.723	0.532	0.515	0.551	0.343	0.358	0.335	0.298	0.265	0.154	0.728	0.165	0.545	0.55	0.353	0.225	0.189	0.254	0.272	0.251
UMC-11	1.04	0.819	0.69	0.452	0.285	0.462	0.417	0.302	0.308	0.286	1.03	0.75	0.593	0.432	0.34	0.696	0.624	0.363	0.48	0.336
NCI-H727	0.309	0.293	0.285	0.352	0.405	0.468	0.477	0.367	0.494	0.438	0.777	0.555	0.417	0.386	0.436	0.866	0.964	0.895	0.829	0.669
LK-2	0.208		0.166	0.191	0.158	0.208		0.182	0.212	0.162	1.09		0.642	1.23	0.842	0.299	0.213	0.333	0.324	0.283
HOP-62	0.905	0.844	0.91	0.716	0.675	0.793		0.697	0.624	0.446	0.77		0.871	0.825	0.79	0.179		0.237	0.207	0.257
NCI-H1666	0.969	0.886	0.824	0.754	0.542	0.831	0.672	0.682	0.747	0.471	0.644	0.559	0.419	0.474	0.384	0.725	0.67	0.721	0.682	0.565
NCI-H460	0.0282	0.0413	0.0309	0.0231	0.026	0.708	0.531	0.366	0.376	0.159	0.92	0.813	0.71	0.516	0.207	0.432	0.415	0.503	0.46	0.264
SW 1573	0.385	0.207	0.257	0.208	0.265	0.662	0.468	0.389	0.357	0.235	1.01	1.09	1.04	0.901	0.781	0.573	0.455	0.598	0.479	0.326
NCI-H520	0.203	0.214	0.225	0.216	0.222	0.21	0.228	0.203	0.236	0.212	0.92	0.556	0.695	0.572	0.243	0.491	0.417	0.423	0.395	0.29
LU99A	0.254	0.201	0.232	0.251	0.2	0.305	0.274	0.221	0.238	0.223	0.936	0.539	0.922	0.853	0.577	0.926		0.863	0.813	0.684
RERF-LC-KJ	1.4	1.17	0.937	1.3	1.48	0.541	0.583	0.508	0.598	0.64	0.846	0.81	0.817	0.869	0.837	0.879	0.732	0.733	0.748	0.767
NCI-H596	0.91		0.968	0.958	1.04	0.681		0.761	0.649	0.809	1.28	1.07	0.974	1.2	1.14	1.15	0.973	1.05	0.945	1.22
SK-LU-1	0.218	0.177	0.222	0.223	0.207	0.375	0.316	0.231	0.241	0.202	1.02	0.856	0.624	0.619	0.529	0.644	0.659	0.6	0.639	0.505
H3255	0.925	0.91	0.65	0.587	0.464	0.597	0.49	0.405	0.469	0.382	0.263	0.246	0.2	0.231	0.211	0.733	0.514	0.522	0.525	0.384
NCI-H2085	0.426	0.332	0.376	0.412	0.327	0.658	0.55	0.547	0.574	0.369	0.756	0.7	0.669	0.663	0.362	0.555	0.55	0.65	0.534	0.538
